The record followed here is patent US11160808B2, “Compounds that enhance Atoh1 expression” (Massachusetts Eye & Ear Infirmary, priority 2008, dated 2021).

Series [1] relates to Math1 enhancer and minimal promoter Luciferase reporter in HEK cells. Description: Math1 Luciferase reporter assay in HEK cells. The format is cell-based, human. The conditions noted are these: Homo sapiens, HEK293; for IC50: read-out: IC50; for maximal fold induction: read-out: Maximum (Fold DMSO). From the text:
A human embryonic kidney (HEK) cell line stably expressing a Luciferase gene controlled by an Math1 enhancer and minimal promoter was used in a high-throughput screen (HTS) of 144,000 small molecules to identify compounds that increase Math1 expression (i.e., transcription and/or translation). Such compounds can be used to increase the conversion of stem cells, progenitor cells, and support cells to or towards a hair cell. Screens to identify such compounds are described by Li et al., (U.S. Publication No. 2005/0287127) and Li et al., (U.S. application Ser. No. 11/953,797).
HEK cells stably expressing the Math1 Luciferase reporter were plated onto 384 well plates and cultured overnight in medium containing 10% fetal calf serum (FCS). Activation of the Math1 enhancer was measured by the increase in luminescence on a plate reader following addition of a luciferase detection agent. The assay was optimized for cell number, time of incubation, volume of medium, cell lysis reagent and luciferase reagent. Luminescence levels were compared in cells with the Math1-luciferase construct with and without retinoic acid (1 μM), and/or a luciferase construct with and without the Math1 enhancer and minimal promoter region.
To improve assay sensitivity, and reduce the coefficient of variation (CV), a more sensitive luciferase reagent (BriteLite luciferase reporter assay reagent, Perkin Elmer) was used, and Triton-X-100 was added to the lysis reagent to ensure complete lysis of the cells. Following these changes a CV of 4.2% was recorded. These conditions were used for all high-throughput screens. The luminescence threshold for a compound to be positive was defined as a 2-fold increase above the control (e.g., cells exposed to DMSO).
Cells were seeded on 384 well plates and allowed to attach overnight at 37° C. with 5% CO2 in the absence of growth factors. Math1 activation was measured by the increase in luminescence on a plate reader following addition of a luciferase detection reagent. Luminescence was assessed at 24, 48, and 72 hours. These conditions were used to screen 144,000 compounds contained in the small molecule libraries at Harvard University's Laboratory for Drug Discovery in Neurodegeneration (LDDN).
HTS were performed using HEK-Math1 cells seeded in 384 well plates. One compound was added per well using pin transfer. The final concentration of each compound was […]. Cell were incubated in the presence of a compound for 48 hours at 37° C. with 5% CO2. Cell lysates then were collected and bioluminescence determined. Luminescence values were compared normalized against DMSO.
About 20000 compounds were screened per week in 50 plates of 384 well with the aid of robotic systems (Beckman Biomek FX). Compounds were screened at an average final concentration of 0.7 μM (in 0.04% DMSO) with each plate containing 16 wells of 1 μM retinoic acid, as a positive control, and 16 wells of 0.04% DMSO, as a vehicle control. Percent activation of luminescence in the test compounds was determined for cells treated with the compounds against cells treated with DMSO.
Ten compounds, randomly selected from the group of 110 compounds identified in Example 2, were further evaluated, as follows. HEK cells were plated on 96 well plates at a density of 100000 cells per well. One day after plating, 0.1, 1, and 5 μM of each positive compound was added per well in a 10% fetal bovine serum (FBS) DMEM solution. Cells were then lysed 48 hours after addition of the compound and Math1 expression was analyzed using a luciferase reporter assay, as described above, and real-time PCR.
The half maximal inhibitory concentration (IC50) and median lethal dose or Lethal Dose, 50% (LD50) were determined for each of the compounds identified in Example 2 using standard laboratory techniques. IC50 is a measure of the effectiveness of a compound in inhibiting biological or biochemical function. LD50 is the amount of a compound required to kill half the members of a tested population.
(In general: Reporter assays use an easily measured gene product as a stand-in for the process of interest.)

Series [2] can be described thus: LD50 (median lethal dose) determination. The series is classed as cell-based. From the text: IC50 is a measure of the effectiveness of a compound in inhibiting biological or biochemical function. LD50 is the amount of a compound required to kill half the members of a tested population.

What is called IC50 is the point on the concentration scale where inhibition reaches its midpoint. Consider `c1ccc(CCn2nnc3ccccc32)cc1` [CP-0070871, 1-phenethyl-1H-benzo[d][1,2,3]triazole], for which, in series [1], the IC50 came to 3000 nM and the maximal fold induction turned out to be 2. The “LD50” value in series [2] was over 10 µM.
For `Cn1cc(Cl)c(C(=O)NCC(=O)c2ccccc2)n1` [CP-0070886, 4-chloro-1-methyl-N-(2-oxo-2-phenylethyl)-1H-pyrazole-3-carboxamide] the same measures were 1000 nM, 2.1 and over 10 µM.
As for `COc1ccc(-c2csc(Nc3ncccc3C)n2)cc1` [CP-0071862, 4-(4-methoxyphenyl)-N-(3-methylpyridin-2-yl)thiazol-2-amine], in series [1], the IC50 is 700 nM and the maximal fold induction worked out at 1.8. Moreover, in series [2], the “LD50” value is over 10 µM.
For `Nc1nc(-c2ccc(-c3ccccc3)cc2)cs1` [CP-0072036, 4-(biphenyl-4-yl) thiazol-2-amine] the same measures were 1500 nM, 1.7 and over 10 µM.
Turning to `Cc1cccc(-c2ccc3ccccc3n2)c1` [CP-0072092, 2-m-tolylquinoline], in series [1], the IC50 came out at 1000 nM and the maximal fold induction turned out to be 1.7. The “LD50” value in series [2] was over 10 µM.
For `c1ccc(-c2cc3ccccc3[nH]2)nc1` [CP-0072096, 2-(pyridin-2-yl)-1H-indole] the same measures were 6000 nM, 2.2 and over 10 µM.
For `O=C(Nc1ccc(Cl)cn1)c1cccs1` [CP-0072156, N-(5-chloropyridin-2-yl)thiophene-2-carboxamide] the same measures were 2000 nM, 2 and over 10 µM.
For `O=C(Nc1ccc(I)cc1)c1ccco1` [CP-0072253, N-(4-iodophenyl)furan-2-carboxamide], in that order: 1300 nM, 2 and over 10 µM.
As for `O=C(NCCOc1ccc(F)cc1)c1cccs1` [CP-0072271, N-(2-(4-fluorophenoxy)ethyl)thio-phene-2-carboxamide], in series [1], the concentration for half-maximal inhibition (IC50) was 1000 nM and the maximal fold induction turned out to be 2.2. Also, the “LD50” value in series [2] was over 10 µM.
For `COc1cccc(Nc2ncnc3[nH]cnc23)c1` [CP-0072720, N-(3-methoxyphenyl)-9H-purin-6-amine] the same measures were 3000 nM, 1.8 and over 10 µM.
For `Cn1c(COc2ccc(F)cc2)nc2ccccc21` [CP-0074806, 2-((4-fluorophenoxy)methyl)-1-methyl-1H-benzo[d]imidazole], in that order: 700 nM, 1.8 and over 10 µM.
On to `O=C(c1cc(-c2ccc(Br)cc2)on1)N1CCOCC1` [CP-0075627, (5-(4-bromophenyl)isoxazol-3-yl)(morpholino)methanone], for which, in series [1], the 50% inhibitory concentration (IC50) worked out at 8000 nM and the maximal fold induction came to 2. Moreover, in series [2], the “LD50” value is over 10 µM.
Take `CCN(CC)C(=O)c1cc2cc3cc(OC)ccc3nc2s1` [CP-0076627, N,N-diethyl-6-methoxythieno [2,3-b]quinoline-2-carboxamide]: in series [1], the 50% inhibitory concentration (IC50) was determined as 5000 nM and the maximal fold induction turned out to be 2.2. The “LD50” value in series [2] is over 10 µM.
For `O=C(Nc1ccccc1Cl)C(=O)c1c[nH]c2ccccc12` [CP-0078448, N-(2-chlorophenyl)-2-(1H-indol-3-yl)-2-oxoacetamide] the same measures were over 10000 nM, 1.9 and over 10 µM.
For `CCN(CC)c1ncnc2c1cnn2-c1cccc(C)c1` [CP-0079810, N,N-diethyl-1-m-tolyl-1H-pyrazolo[3,4-d]pyrimidin-4-amine] the same measures were 3000 nM, 2.3 and over 10 µM.
As for `Clc1ccc2oc(-c3ccccc3)nc2c1` [CP-0079983, 5-chloro-2-phenylbenzo[d]oxazole], in series [1], the IC50 turned out to be 3000 nM and the maximal fold induction was 1.8. The “LD50” value in series [2] is over 10 µM.
Regarding `COc1ccc(-c2ccc3c(n2)CCCN3)cc1` [CP-0080276, 6-(4-methoxyphenyl)-1,2,3,4-tetrahydro-1,5-naphthyridine], in series [1], the IC50 was found to be 300 nM and the maximal fold induction came out at 2. In series [2], the “LD50” value is over 10 µM.
For `c1ccc(SCc2nc3ccccc3[nH]2)cc1` [CP-0080773, 2-(phenylthiomethyl)-1H-benzo[d]imidazole] the same measures were over 10000 nM, 2.2 and over 10 µM.
For `NC(=O)c1c(NC(=O)c2cc3ccccc3o2)sc2c1CCC2` [CP-0087336, N-(3-carbamoyl-5,6-dihydro-4H-cyclopenta[b]thiophen-2-yl)benzofuran-2-carboxamide] the same measures were 80 nM, 2.2 and over 10 µM.
Consider `COc1ccccc1N1CCN(c2ccc3ccccc3n2)CC1` [CP-0087799, 2-(4-(2-methoxyphenyl)piperazin-1-yl)quinoline], for which, in series [1], the IC50 is 1000 nM and the maximal fold induction amounted to 2.1. Also, the “LD50” value in series [2] is over 10 µM.
On to `O=C(NCCSc1ccccc1)c1cncc(Br)c1` [CP-0089966, 5-bromo-N-(2-(phenylthio)ethyl) nicotinamide], for which, in series [1], the IC50 is over 10000 nM and the maximal fold induction is 2.2. Further, the “LD50” value in series [2] was over 10 µM.
For `Cc1ccc2nc(-c3cc4ccccc4oc3=N)[nH]c2c1` [CP-0091818, 3-(6-methyl-1H-benzo[d]imidazol-2-yl)-2H-chromen-2-imine] the same measures were 900 nM, 2.1 and over 10 µM.
For `COc1cc(C)c2c(=O)cc(-c3ccccc3)oc2c1` [CP-0096433, 7-methoxy-5-methyl-2-phenyl-4H-chromen-4-one] the same measures were 3000 nM, 2 and over 10 µM.
For `CS(=O)(=O)n1nccc1-c1ccc(-c2ccc(F)cc2F)o1` [CP-0099289, 5-(5-(2,4-difluorophenyl)furan-2-yl)-1-(methylsulfonyl)-1H-pyrazole] the same measures were over 10000 nM, 1.6 and over 10 µM.
For the molecule `CC(=O)Nc1cc(-c2sc3ccc(Cl)cc3c2C)n[nH]1` [CP-0102404, N-(3-(5-chloro-3-methylbenzo[b]thiophen-2-yl)-1H-pyrazol-5-yl)acetamide], in series [1], the half-inhibitory concentration (IC50) was over 10000 nM and the maximal fold induction was determined as 1.6. Further, the “LD50” value in series [2] is over 10 µM.
With `Cc1cccc(-c2nc3cc(C)ccc3o2)c1` [CP-0103978, 5-methyl-2-m-tolylbenzo[d]oxazole], in series [1], the IC50 is 1000 nM and the maximal fold induction was determined as 2. The “LD50” value in series [2] is over 10 µM.
For `Cc1oc(C(C)(C)C)cc1-c1cc(NC(=O)c2ccccc2)[nH]n1` [CP-0104765, N-(3-(5-tert-butyl-2-methylfuran-3-yl)-1H-pyrazol-5-yl)benzamide], in that order: 400 nM, 2 and over 10 µM.
For `Cc1cc(C(=O)Nc2ccccc2)c(C)n1Cc1cccs1` [CP-0104766, 2,5-dimethyl-N-phenyl-1-(thiophen-2-ylmethyl)-1H-pyrrole-3-carboxamide], in that order: 3000 nM, 3 and over 10 µM.
